HELM strings list units from the 5' end as sugar, base in round brackets, then linkage (d deoxyribose, r ribose, m 2'-O-methyl, p phosphodiester). Strings are as the collection lists them, not checked against the first reports. ss, as = sense and antisense strand
Further: test system not given here.

For this series the following is noted: siRNA.
Substance “RNA1{r(G)p.m(U)p.r(A)p.r(C)p.r(U)p.r(C)p.m(U)p.r(G)p.r(A)p.m(U)p.r(G)p.r(A)p.r(G)p.r(G)p.r(A)p.r(A)p.r(G)p.r(A)p.r(G)p.r(T)p.r(T)}|RNA2{r(C)p.r(U)p.r(C)p.r(U)p.r(U)p.r(C)p.r(C)p.r(U)p.m(C)p.r(A)p.r(U)p.m(C)p.r(A)p.r(G)p.r(A)p.r(G)p.r(U)p.m(A)p.r(C)p.r(T)p.r(T)}$$$RNA1{StrandType:ss}|RNA2{StrandType:as}$” gave a target mRNA knockdown of 68%.

The substance “RNA1{r(G)p.m(U)p.r(A)p.r(C)p.r(U)p.r(C)p.r(U)p.r(G)p.r(A)p.r(U)p.r(G)p.r(A)p.r(G)p.r(G)p.r(A)p.r(A)p.r(G)p.r(A)p.r(G)p.r(T)p.r(T)}|RNA2{r(C)p.r(U)p.r(C)p.r(U)p.r(U)p.r(C)p.r(C)p.r(U)p.r(C)p.r(A)p.r(U)p.r(C)p.r(A)p.r(G)p.r(A)p.r(G)p.r(U)p.r(A)p.r(C)p.r(T)p.r(T)}$$$RNA1{StrandType:ss}|RNA2{StrandType:as}$” had a target mRNA knockdown of 69%.

As to “RNA1{r(G)p.m(U)p.r(A)p.r(U)p.r(C)p.r(C)p.r(G)p.r(A)p.r(A)p.m(G)p.m(A)p.r(C)p.r(G)p.r(A)p.r(A)p.r(G)p.r(C)p.m(U)p.r(A)p.r(T)p.r(T)}|RNA2{m(U)p.r(A)p.r(G)p.r(C)p.r(U)p.r(U)p.r(C)p.r(G)p.r(U)p.r(C)p.r(U)p.r(U)p.r(C)p.r(G)p.r(G)p.r(A)p.m(U)p.r(A)p.r(C)p.r(T)p.r(T)}$$$RNA1{StrandType:ss}|RNA2{StrandType:as}$”, the target mRNA knockdown amounted to 92%.

The substance “RNA1{r(G)p.r(A)p.m(C)p.r(A)p.r(A)p.r(G)p.r(G)p.r(G)p.r(A)p.r(A)p.r(G)p.r(G)p.r(U)p.m(U)p.r(A)p.r(G)p.r(C)p.r(C)p.r(U)p.r(T)p.r(T)}|RNA2{r(A)p.r(G)p.r(G)p.r(C)p.m(U)p.r(A)p.r(A)p.r(C)p.r(C)p.r(U)p.r(U)p.r(C)p.r(C)p.r(C)p.r(U)p.m(U)p.r(G)p.r(U)p.r(C)p.r(T)p.r(T)}$$$RNA1{StrandType:ss}|RNA2{StrandType:as}$” registered a target mRNA knockdown of 68%.

“RNA1{r(G)p.r(A)p.m(U)p.r(A)p.r(C)p.r(U)p.r(U)p.r(C)p.m(U)p.r(G)p.r(G)p.r(U)p.r(U)p.r(C)p.r(C)p.r(C)p.r(U)p.r(C)p.r(C)p.r(T)p.r(T)}|RNA2{r(G)p.r(G)p.r(A)p.r(G)p.r(G)p.r(G)p.r(A)p.r(A)p.r(C)p.m(C)p.r(A)p.r(G)p.r(A)p.r(A)p.r(G)p.m(U)p.r(A)p.r(U)p.r(C)p.r(T)p.r(T)}$$$RNA1{StrandType:ss}|RNA2{StrandType:as}$”: the target mRNA knockdown is 45%.

“RNA1{r(G)p.r(A)p.m(U)p.r(A)p.r(C)p.r(U)p.r(U)p.r(C)p.r(U)p.r(G)p.r(G)p.r(U)p.r(U)p.r(C)p.r(C)p.r(C)p.r(U)p.r(C)p.r(C)p.r(T)p.r(T)}|RNA2{r(G)p.r(G)p.r(A)p.r(G)p.r(G)p.r(G)p.r(A)p.r(A)p.r(C)p.r(C)p.r(A)p.r(G)p.r(A)p.r(A)p.r(G)p.m(U)p.r(A)p.r(U)p.r(C)p.r(T)p.r(T)}$$$RNA1{StrandType:ss}|RNA2{StrandType:as}$” displayed a target mRNA knockdown of 46%.

Substance “RNA1{r(G)p.r(A)p.m(U)p.r(A)p.r(G)p.r(G)p.r(A)p.r(A)p.r(G)p.r(G)p.r(G)p.m(G)p.r(C)p.r(U)p.r(U)p.m(C)p.r(A)p.r(G)p.r(C)p.r(T)p.r(T)}|RNA2{r(G)p.r(C)p.m(U)p.r(G)p.r(A)p.r(A)p.r(G)p.r(C)p.r(C)p.r(C)p.r(C)p.r(U)p.r(U)p.r(C)p.r(C)p.m(U)p.r(A)p.r(U)p.r(C)p.r(T)p.r(T)}$$$RNA1{StrandType:ss}|RNA2{StrandType:as}$” gave a target mRNA knockdown of 42%.

In the case of “RNA1{r(G)p.r(A)p.m(U)p.r(A)p.r(G)p.r(G)p.r(A)p.r(A)p.r(G)p.r(G)p.r(G)p.r(G)p.r(C)p.r(U)p.r(U)p.r(C)p.r(A)p.r(G)p.r(C)p.r(T)p.r(T)}|RNA2{r(G)p.r(C)p.r(U)p.r(G)p.r(A)p.r(A)p.r(G)p.r(C)p.r(C)p.r(C)p.r(C)p.r(U)p.r(U)p.r(C)p.r(C)p.m(U)p.m(A)p.r(U)p.r(C)p.r(T)p.r(T)}$$$RNA1{StrandType:ss}|RNA2{StrandType:as}$”, the target mRNA knockdown came to 41%.

(Values after the OligoGym collection.)
